Targets include Cytochrome P450 2D6 (Homo sapiens, UniProt P10635); Cytochrome P450 2C9 (Homo sapiens, UniProt P11712); Cytochrome P450 3A4 (Homo sapiens, UniProt P08684).
In experiment [1] the target is T1, Corticotropin-releasing factor receptor 2/Corticotropin-releasing factor-binding protein (Homo sapiens, UniProt P24387+Q13324).
T1 sequence (Q13324 whole entry): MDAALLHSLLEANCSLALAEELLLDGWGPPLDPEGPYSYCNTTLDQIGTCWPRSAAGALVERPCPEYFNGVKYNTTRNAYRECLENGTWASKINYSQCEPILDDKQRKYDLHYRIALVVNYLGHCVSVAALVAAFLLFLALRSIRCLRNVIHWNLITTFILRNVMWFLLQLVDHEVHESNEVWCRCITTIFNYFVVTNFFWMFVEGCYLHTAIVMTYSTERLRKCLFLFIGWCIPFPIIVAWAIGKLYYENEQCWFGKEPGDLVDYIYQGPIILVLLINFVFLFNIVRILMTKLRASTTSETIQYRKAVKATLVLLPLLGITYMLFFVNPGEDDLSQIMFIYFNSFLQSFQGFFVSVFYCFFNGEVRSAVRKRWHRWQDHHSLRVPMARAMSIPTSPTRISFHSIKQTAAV
T1 sequence (P24387 whole entry): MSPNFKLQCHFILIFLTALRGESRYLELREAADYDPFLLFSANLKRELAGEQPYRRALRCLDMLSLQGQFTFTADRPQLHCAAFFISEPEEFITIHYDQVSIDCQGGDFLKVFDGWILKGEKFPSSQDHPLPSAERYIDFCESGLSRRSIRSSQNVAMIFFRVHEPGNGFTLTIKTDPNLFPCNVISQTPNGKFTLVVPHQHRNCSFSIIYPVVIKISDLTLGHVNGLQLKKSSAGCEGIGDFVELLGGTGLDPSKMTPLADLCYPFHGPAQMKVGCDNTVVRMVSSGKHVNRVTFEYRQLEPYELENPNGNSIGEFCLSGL
Briefly: activators of CRF receptor 2 with binding protein – uHTS hits, confirmation (AID 602473). It is filed as functional. The conditions noted are these: read-out: EC50_Mean.

A short description of experiment [2]: Luminescence Cell-Based Dose Confirmation HTS to Identify Inhibitors of Platelet Dense Granule Release. [Related pubchem assays: 1663 (Primary HTS), 1678 (Summary of Project)]. It is filed as functional.
The target in experiment [3] is Luciferin 4-monooxygenase (Photinus pyralis, UniProt P08659). Briefly: firefly luciferase enzyme inhibitors, dose response, biochemical, luminescence (AID 1891).
The nature of experiment [4]: NIH-3T3 fibroblast cytotoxicity, dose response, cytotoxicity control, cell-based, fluorescence, Alamar Blue, secondary assay (AID 2327).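 Further: NIH-3T3 mouse fibroblasts cultured with fluconazole at 8 µg/mL.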 The class given is functional.
Experiment [5] can be described thus: C. albicans growth with fluconazole, confirmation, fluorescence, retest (AID 2467). The class given is functional, cell-based.
Experiment [6] is described as follows: HEp-2 cell cytotoxicity, dose response, cytotoxicity control for RSV inhibitor project, HTS (AID 2410). The conditions noted are these: human respiratory syncytial virus. It is filed as functional.
The target in another experiment is T2, Protein RecA (Mycobacterium tuberculosis, UniProt P9WHJ3).
T2 sequence (P9WHJ3 whole entry): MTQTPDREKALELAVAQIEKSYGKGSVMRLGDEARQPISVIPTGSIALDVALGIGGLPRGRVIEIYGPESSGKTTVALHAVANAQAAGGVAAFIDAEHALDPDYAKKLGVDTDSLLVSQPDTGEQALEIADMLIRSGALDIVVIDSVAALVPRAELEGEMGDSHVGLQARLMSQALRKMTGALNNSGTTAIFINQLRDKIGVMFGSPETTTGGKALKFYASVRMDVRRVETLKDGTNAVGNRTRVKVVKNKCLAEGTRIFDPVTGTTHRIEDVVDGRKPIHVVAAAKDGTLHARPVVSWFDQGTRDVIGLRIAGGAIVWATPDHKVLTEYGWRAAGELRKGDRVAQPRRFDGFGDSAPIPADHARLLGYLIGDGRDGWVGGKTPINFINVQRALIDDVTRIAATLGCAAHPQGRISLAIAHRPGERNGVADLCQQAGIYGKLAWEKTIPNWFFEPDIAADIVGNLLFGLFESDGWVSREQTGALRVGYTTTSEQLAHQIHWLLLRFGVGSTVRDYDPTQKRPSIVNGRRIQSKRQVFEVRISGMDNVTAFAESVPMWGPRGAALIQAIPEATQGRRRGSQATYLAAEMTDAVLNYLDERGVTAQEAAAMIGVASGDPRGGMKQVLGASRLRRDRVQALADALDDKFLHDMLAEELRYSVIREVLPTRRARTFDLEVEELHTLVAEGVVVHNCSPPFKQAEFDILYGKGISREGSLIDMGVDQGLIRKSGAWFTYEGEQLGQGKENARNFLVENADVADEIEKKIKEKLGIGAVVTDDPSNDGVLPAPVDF
Briefly: Fluorescence Cell-Free Homogeneous Dose Retest to Identify Inhibitors of RecA-Intein Splicing Activity. [Related pubchem assays (depositor defined):AID2097, AID2223, AID489010, AID492950]. It is filed as functional.

Experiment [7] addresses T3, Replicative DNA helicase DnaB (Mycobacterium tuberculosis, UniProt P9WMR3).
T3 sequence (P9WMR3 whole entry): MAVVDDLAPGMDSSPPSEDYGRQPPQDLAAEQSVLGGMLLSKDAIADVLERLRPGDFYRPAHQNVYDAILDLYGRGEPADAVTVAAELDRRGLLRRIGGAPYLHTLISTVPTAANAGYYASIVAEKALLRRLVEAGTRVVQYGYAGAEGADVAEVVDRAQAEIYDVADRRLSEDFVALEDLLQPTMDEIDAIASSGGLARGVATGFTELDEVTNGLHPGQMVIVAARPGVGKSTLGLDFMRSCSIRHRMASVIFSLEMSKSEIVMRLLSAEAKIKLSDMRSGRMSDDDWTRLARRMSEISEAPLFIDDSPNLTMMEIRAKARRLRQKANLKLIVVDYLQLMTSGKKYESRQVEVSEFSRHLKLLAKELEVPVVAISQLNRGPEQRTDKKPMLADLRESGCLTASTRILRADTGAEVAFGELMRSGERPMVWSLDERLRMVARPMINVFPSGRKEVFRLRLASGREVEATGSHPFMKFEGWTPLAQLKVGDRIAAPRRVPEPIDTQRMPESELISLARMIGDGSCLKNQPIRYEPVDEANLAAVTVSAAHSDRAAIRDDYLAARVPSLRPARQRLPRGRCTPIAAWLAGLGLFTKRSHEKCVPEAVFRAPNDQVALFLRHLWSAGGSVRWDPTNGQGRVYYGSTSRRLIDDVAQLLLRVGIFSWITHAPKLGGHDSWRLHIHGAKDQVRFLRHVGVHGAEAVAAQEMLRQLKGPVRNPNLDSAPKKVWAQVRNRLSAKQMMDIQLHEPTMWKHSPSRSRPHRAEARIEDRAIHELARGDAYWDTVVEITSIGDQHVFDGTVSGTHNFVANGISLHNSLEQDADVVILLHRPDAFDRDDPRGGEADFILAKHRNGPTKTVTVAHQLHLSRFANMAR
Briefly: DnaB intein splicing inhibitors, dose response, biochemical, cell-free fluorescence (AID 449749). It is filed as functional.

For another experiment, the target named is Cytochrome P450 2C19 (Homo sapiens, UniProt P33261). Briefly: Cytochrome panel assay with activity outcomes. Panel member name: p450-cyp2c19 Compounds with AC50 equal or less than 10 uM are considered active. The class given is functional. The conditions noted are these: read-out: AC50.
Experiment [8] can be described thus: microbe, parasite or virus in culture. The class given is functional. The following applies: Mycobacterium tuberculosis.
The nature of experiment [9]: cytotoxicity toward NIH3T3 fibroblasts, dose response, counter-screen, cell-based, ATP luminescence, mouse fibroblasts (AID 2010).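 Further: cells exposed to compound for about 90 hours before reading.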 The class given is functional.
A short description of experiment [10]: inhibitors of SNCA 5'UTR-driven reporter translation, confirmation, H4 neuroglioma cells, luminescence (AID 1988). The class given is functional, cell-based.
The nature of experiment [11]: inhibitors of firefly luciferase expression or activity, dose response, H4 neuroglioma cells, luminescence (AID 1990). It is filed as functional, cell-based.
A short description of experiment [12]: inhibitors of intracellular T. cruzi replication, confirmation, NIH3T3 host cells, beta-gal luminescence (AID 2044).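 Further: intracellular parasites grown in NIH/3T3 mouse fibroblasts as host cells; luminescent beta-galactosidase reporter signal from transgenic T. cruzi replicating inside host cells; inhibitors lower the luminescence signal.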 It is filed as functional, cell-based.
A short description of experiment [13]: Luminescence Cell-Based Dose Response HTS to Identify Inhibitors of 5'UTR Stem-Loop Driven Prion Protein mRNA Translation in H4 Neuroglioblastoma Cells. [Related pubchem assays: 1827 (Project Summary), 1813 (Primary HTS)]. It is filed as functional.
Experiment [14] in a line: Luminescence Cell-Based Dose Retest to Confirm Inhibitors of Cancer Stem Cells. [Related pubchem assays (depositor defined):AID2717, AID2721]. The class given is functional. The conditions noted are these: Homo sapiens.
The nature of experiment [15]: Shn3 3'UTR reporter inhibitors, dose response, cell-based, Clone20 osteoblasts, firefly luciferase, cherry-picked (AID 624132).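 Further: firefly luciferase luminescence from reporter carrying the Shn3 3'UTR in osteoblasts.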 It is filed as functional.
Experiment [16] is described as follows: HepG2 cell cytotoxicity, dose response, cytotoxicity control for Shn3 inhibitor project, CellTiter-Glo, cherry-picked (AID 624134). The class given is functional, cell-based.

Active and inactive are the calls of the source.

Cytochrome P450 2D6, sequence (P10635 whole entry): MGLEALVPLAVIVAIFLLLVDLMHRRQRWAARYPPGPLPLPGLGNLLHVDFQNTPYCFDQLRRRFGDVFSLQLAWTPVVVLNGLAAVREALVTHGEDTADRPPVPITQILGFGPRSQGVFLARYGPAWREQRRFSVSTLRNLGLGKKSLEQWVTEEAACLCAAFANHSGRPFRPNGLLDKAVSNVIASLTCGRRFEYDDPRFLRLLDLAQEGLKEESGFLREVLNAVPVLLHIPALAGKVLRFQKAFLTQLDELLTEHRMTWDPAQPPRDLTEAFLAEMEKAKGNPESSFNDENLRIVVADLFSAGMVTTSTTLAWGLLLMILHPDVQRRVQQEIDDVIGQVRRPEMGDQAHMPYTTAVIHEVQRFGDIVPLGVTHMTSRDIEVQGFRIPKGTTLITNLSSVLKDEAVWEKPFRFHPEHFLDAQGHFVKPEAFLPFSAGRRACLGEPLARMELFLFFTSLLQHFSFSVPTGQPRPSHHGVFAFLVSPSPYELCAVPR
Cytochrome P450 3A4, sequence (P08684 whole entry): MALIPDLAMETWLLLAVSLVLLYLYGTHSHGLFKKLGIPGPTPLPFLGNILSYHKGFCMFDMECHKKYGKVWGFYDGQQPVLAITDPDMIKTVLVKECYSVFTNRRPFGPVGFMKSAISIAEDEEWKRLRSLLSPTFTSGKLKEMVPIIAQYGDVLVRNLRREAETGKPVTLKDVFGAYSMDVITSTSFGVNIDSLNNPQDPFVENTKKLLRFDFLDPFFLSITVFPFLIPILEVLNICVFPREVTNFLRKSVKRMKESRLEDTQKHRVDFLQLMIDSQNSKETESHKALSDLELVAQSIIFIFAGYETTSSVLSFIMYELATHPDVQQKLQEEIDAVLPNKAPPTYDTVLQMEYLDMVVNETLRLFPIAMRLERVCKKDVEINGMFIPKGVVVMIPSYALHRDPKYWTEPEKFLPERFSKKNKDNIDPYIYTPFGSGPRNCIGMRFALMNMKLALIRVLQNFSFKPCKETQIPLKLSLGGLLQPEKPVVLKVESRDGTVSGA
Cytochrome P450 2C19, sequence (P33261 whole entry): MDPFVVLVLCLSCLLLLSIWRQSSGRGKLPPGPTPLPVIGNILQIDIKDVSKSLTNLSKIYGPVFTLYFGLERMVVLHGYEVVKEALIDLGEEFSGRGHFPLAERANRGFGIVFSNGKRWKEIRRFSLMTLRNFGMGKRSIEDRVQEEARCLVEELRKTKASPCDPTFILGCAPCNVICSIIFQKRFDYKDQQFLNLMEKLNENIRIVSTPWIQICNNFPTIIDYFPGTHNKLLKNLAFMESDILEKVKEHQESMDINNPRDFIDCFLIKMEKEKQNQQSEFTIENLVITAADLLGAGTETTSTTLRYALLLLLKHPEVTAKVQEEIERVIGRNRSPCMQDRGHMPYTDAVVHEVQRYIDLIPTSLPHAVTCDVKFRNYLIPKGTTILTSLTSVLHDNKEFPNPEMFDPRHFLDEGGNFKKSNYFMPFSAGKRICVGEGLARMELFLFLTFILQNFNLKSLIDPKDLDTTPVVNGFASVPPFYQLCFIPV
Cytochrome P450 2C9, sequence (P11712 whole entry): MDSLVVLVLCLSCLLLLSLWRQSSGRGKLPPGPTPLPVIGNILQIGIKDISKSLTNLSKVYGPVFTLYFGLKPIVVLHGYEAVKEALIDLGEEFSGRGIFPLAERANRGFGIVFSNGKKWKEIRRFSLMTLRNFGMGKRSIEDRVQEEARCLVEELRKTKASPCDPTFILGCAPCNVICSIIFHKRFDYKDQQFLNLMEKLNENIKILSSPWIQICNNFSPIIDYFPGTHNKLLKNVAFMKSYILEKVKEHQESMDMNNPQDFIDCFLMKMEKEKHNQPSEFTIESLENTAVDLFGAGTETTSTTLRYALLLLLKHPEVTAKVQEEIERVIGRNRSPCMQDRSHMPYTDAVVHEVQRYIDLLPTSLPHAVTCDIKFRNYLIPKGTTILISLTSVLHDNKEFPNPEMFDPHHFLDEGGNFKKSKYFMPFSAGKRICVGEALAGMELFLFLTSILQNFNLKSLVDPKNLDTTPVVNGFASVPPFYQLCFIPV
Luciferin 4-monooxygenase, sequence (P08659 whole entry): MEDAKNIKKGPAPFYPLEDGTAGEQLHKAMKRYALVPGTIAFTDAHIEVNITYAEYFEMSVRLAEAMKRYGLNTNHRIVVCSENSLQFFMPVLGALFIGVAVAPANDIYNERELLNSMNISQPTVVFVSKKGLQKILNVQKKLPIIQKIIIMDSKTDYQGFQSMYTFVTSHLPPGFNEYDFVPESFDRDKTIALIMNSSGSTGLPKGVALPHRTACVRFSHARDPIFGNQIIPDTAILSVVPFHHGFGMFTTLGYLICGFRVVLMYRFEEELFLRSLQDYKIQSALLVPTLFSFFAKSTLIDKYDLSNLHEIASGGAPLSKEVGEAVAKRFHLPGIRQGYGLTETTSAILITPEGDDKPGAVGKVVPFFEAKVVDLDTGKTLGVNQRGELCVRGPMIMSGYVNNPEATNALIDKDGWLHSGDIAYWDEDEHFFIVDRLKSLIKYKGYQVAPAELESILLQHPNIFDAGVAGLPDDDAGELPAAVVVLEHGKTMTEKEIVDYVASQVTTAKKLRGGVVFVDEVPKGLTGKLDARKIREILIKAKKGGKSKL

For `CC1=[N+]([O-])C(C)(C)N(O)C1(C)C`, the values for the EC50 in [1], in experiment [2] and in experiment [3] were > 53 µM (inactive), > 112 µM (not active) and > 112 µM (not active), respectively.
As for `O=C1C=C(c2ccccc2)C(c2ccccc2)C1O` (stereo not given), in experiment [1], the EC50 is > 53 µM (inactive).
Still for that read-out and setting: with `O=C1/C(=C/c2ccc(O)cc2)SC(=S)N1Cc1cccnc1` the figure was 12.9 µM (active).
Turning to `CCOc1ccc(NC(=O)CCC(=O)N/N=C/c2ccc3c(c2)OCO3)cc1`, the values for the EC50 in experiment [4] and in experiment [5] were > 150 µM (inactive) and > 38 µM (not active), respectively.
On to `CCc1ccccc1N(CC)C(=O)C1CCN(c2ncnc3c2nc2n3CCCCC2)CC1`, for which the CC50 in experiment [6] was 17.2 µM (active).
Same read-out and setting: under `CN=C(S)NNC(=O)c1ccc(N(C)C)cc1` stands > 50 µM (active).
Consider `Oc1c(/C=N/Cc2ccc(F)cc2)[nH]c2ccc(Br)c(Cl)c12`, for which the CC50 in [6] is 29.1 µM (active). In addition, the EC50 on Protein RecA is 2.44 µM (active). In [7], the AC50 is 61.8 µM (active).
Regarding `COC(=O)c1ccc(CSc2nc3ccccc3[nH]2)o1`, the CC50 in [6] is > 50 µM (active).
For `COc1ccc(-c2oc3cccnc3c2C#CCO)cc1`, in [6], the CC50 is > 50 µM (active).
Still for that read-out and setting: with `CCOc1ccc(-n2c(SCc3cc(=O)oc4cc(C)c(C(C)C)cc34)nnc2-c2cccnc2)cc1` the figure was 17.5 µM (active).
`COc1cccc(Cn2c(=O)c(-c3cccs3)nc3cncnc32)c1`: the AC50 at Cytochrome P450 2D6 is 6.31 µM (inconclusive).
For `CCCn1cnc2c(SCc3ccc(Cl)cc3)nc(N)nc21`, the AC50 at Cytochrome P450 2C9 is 6.31 µM (inconclusive); at Cytochrome P450 3A4 it was 6.31 µM (inconclusive); at Cytochrome P450 2D6 it was 3.16 µM (inconclusive).
For the compound `O=S(=O)(c1ccccc1)N1CCCC(c2nc(O)c3nnn(Cc4ccccc4Br)c3n2)C1` (stereo not given), the CC50 in experiment [6] is 18.2 µM (active).
As to `Fc1ccc2c(c1)C(c1ccncc1)=NNC(c1cccnc1)=N2`, the EC50 is > 160 µM (inactive) in [4] and 2.26 µM (active) in experiment [5].
For the compound `O=C1c2ccccc2C(=O)N1CCCSc1ccccc1`, the AC50 on Cytochrome P450 2D6 is 3.16 µM (inconclusive).
Turning to `CNc1ncnc2ccc(-c3ccccc3OC)cc12`, the AC50 on Cytochrome P450 2D6 is 25.1 µM (inconclusive); on Cytochrome P450 2C19, 31.6 µM (inconclusive).
As for `Cc1[nH]c2ccccc2c1N=Nc1ccccc1F`, the CC50 in experiment [6] is 18 µM (active).
Consider `Cc1cnc(CNc2nc(-c3ccoc3)nc3ccccc23)cn1`, for which the AC50 on Cytochrome P450 2D6 was 20 µM (inconclusive).
As for `Cc1ccc(-n2nc(C)c3c(C)c(CCC(=O)Nc4ccc(CN5CCCC5)cc4)c(C)nc32)cc1`, the CC50 in experiment [8] was 8.7 µM (active). The EC50 in [9] was > 60 µM (not active); in experiment [10], 8.22 µM (active); in experiment [11], 9.39 µM (active); in experiment [12], 1.76 µM (active); in experiment [13], > 120 µM (not active). Further, the AC50 in experiment [14] was 5.7 µM (active).
As for `CC(C)C(CCNC(=O)CC(Cc1ccccc1)c1ccco1)c1ccco1` (stereo not given), the AC50 at Cytochrome P450 3A4 was 39.8 µM (inconclusive); at Cytochrome P450 2D6, 5.62 µM (inconclusive); at Cytochrome P450 2C19, 0.631 µM (inconclusive).
Turning to `c1ccc(CC2CCN(C3=Nc4cccc5cccc3c45)CC2)cc1`, in [8], the CC50 was > 40 µM (active). In addition, the EC50 in experiment [4] was 73.9 µM (active); in experiment [5], 4.58 µM (active); in [9] it was > 30 µM (not active); in experiment [12], 0.935 µM (active).
As for `Cc1nc2ccccc2cc1OCc1ccccc1`, the EC50 in experiment [4] was > 160 µM (inactive); in experiment [5], 3.26 µM (active).
With `Cc1ccccc1C(=O)NC(=S)Nc1sc2c(c1C#N)CCC(C)C2` (stereo not given), the CC50 in [6] was 36.8 µM (active).
In the case of `CSc1cccc(NC(=O)Nc2ccc(Cl)cc2)c1`, the AC50 is 14.1 µM (inconclusive) on Cytochrome P450 3A4 and 3.55 µM (inconclusive) on Cytochrome P450 2D6.
Turning to `Cc1ccc(S(=O)(=O)N2CCC3(CC2)OCCN3S(=O)(=O)c2c(C)cc(C)cc2C)cc1`, the AC50 is 6.81 µM (active) in [15] and 56.1 µM (active) in experiment [16].
Consider `c1coc(CNc2c3c(nc4ncnn24)CCC3)c1`, for which the CC50 in experiment [6] was 40.5 µM (active).

(Values after ChEMBL document CHEMBL1201862, “PubChem BioAssay data set” (2004).)
